Our source for the Qmax and Kd values is US11053281B2, “Peptoid affinity ligands” (MIKE-ANN, LLC, priority 2016, dated 2021).

Where two headings read alike, the source gives them in different places. *1 amine or outer side, *2 acyl side, *3 side chain or, on linkers, in order; H or OH if unused. Where a SMILES comes first, the peptide text is derived from it. [ ]: non-standard residue; d: D form. Gly(N(CH2)2(3-indolyl)) = O=C(O)CNCCc1c[nH]c2ccccc12; Gly(N-(CH2)3-guanidino) = N=C(N)NCCCNCC(=O)O; NGly(CH2(3-pyridyl)) = O=C(O)CNCc1cccnc1; N(CH2CH2COOH)Gly = O=C(O)CCNCC(=O)O; Gly(N(CH2)3NH2) = NCCCNCC(=O)O; Cysteamide = C(CS[*:3])N[*:1]; NPrGly = CCCNCC(=O)O; Nme = COCCNCC(=O)O; Sar = CNCC(=O)O

The term Kd denotes the constant that tells how readily two partners part at equilibrium.

The subject of this experiment is polyclonal human IgG. Put plainly: Adsorption isotherm of peptoid affinity resins against polyclonal human IgG. The conditions noted are these: for Qmax: maximum capacity (qmax) of resin from isotherm fit; for Kd: peptoid ligand conjugated to chromatographic resin, IgG in PBS, hyperbola fit of isotherm, Kd given in molar, read-out: Kd x 10^−6. The class given is binding. Further details: Qmax: unit not given here. As for the experimental part: The affinity for the peptoid-resin combinations was determined by measuring the adsorption isotherm of each resin against polyclonal human IgG (Pakimna et al., J Applied Sci., 12(11): 1136-1141, 2012). Briefly, 0.050 mL of 50% resin slurry was pipetted into 6 individual wells of a 96-well filter plate (0.45 micron, PVDF, Harvard Apparatus). The resin was washed with 2×250 μL PBS using a vacuum manifold. To an individual well, 0.25 mL of a human polyclonal IgG solution at different concentrations (10, 5, 2.5, 1.25, 0.625, and 0.3125 mg/mL) was added. The resin/IgG suspension was agitated gently on a rocking table for 30 minutes. The fluid was then collected via vacuum, and the resin was washed with 0.25 mL of PBS. The filtrate and wash were then analyzed by the BCA assay to determine the residual IgG concentration relative to the starting concentration of the solution.
The equilibrium concentrations were then used to determine the capacity of the resin at each IgG concentration using the following formula: q=Volumesample×(Initial Concentration−Equilibrium Concentration)/Volumeresin
A plot of q versus equilibrium concentration was generated and the data fit with a hyperbola to determine the affinity constant (Kd) and the maximum capacity (qmax) according to the below formula, where C=the equilibrium concentration of antibody in solution: q=qmax×C/(kd+C) Typical adsorption isotherm is shown in FIG. 2. Tabulated Kd and qmax data is found in Table 2.

As for `COCCNCC(=O)N(CCc1c[nH]c2ccccc12)CC(=O)N(CCc1c[nH]c2ccccc12)CC(=O)N(CCCN)CC(=O)N(CC(=O)N(CCC(=O)O)CC(=O)N(C)CC(=O)NCCS)Cc1cccnc1` [Ligand 12-73-2] (H-[Nme][Gly(N(CH2)2(3-indolyl))][Gly(N(CH2)2(3-indolyl))][Gly(N(CH2)3NH2)][NGly(CH2(3-pyridyl))][N(CH2CH2COOH)Gly][Sar]-Cysteamide), where the note is “Table 2”, the Qmax is 74 and the Kd came out at 2.7 µM.
In the case of `O=C(CN(CCc1c[nH]c2ccccc12)C(=O)CN(Cc1cccnc1)C(=O)CN(CCc1c[nH]c2ccccc12)C(=O)CNCc1cccnc1)NCCS` [Ligand 16-82-2], where the note is “Table 3”, the Qmax was determined as 41 and the Kd turned out to be 2.5 µM.
Take `CCCN(CC(=O)N(CCc1c[nH]c2ccccc12)CC(=O)NCCS)C(=O)CN(CCc1c[nH]c2ccccc12)C(=O)CN(C)C(=O)CN(CCc1c[nH]c2ccccc12)C(=O)CN(Cc1cccnc1)C(=O)CNCCCN` [Ligand 12-73-4] (H-[Gly(N(CH2)3NH2)][NGly(CH2(3-pyridyl))][Gly(N(CH2)2(3-indolyl))][Sar][Gly(N(CH2)2(3-indolyl))][NPrGly][Gly(N(CH2)2(3-indolyl))]-Cysteamide): for the setting “Table 2”, the Qmax came to 72 and the Kd was found to be 3.9 µM.
Consider `CN(CC(=O)NCCS)C(=O)CN(CCC(=O)O)C(=O)CN(Cc1cccnc1)C(=O)CN(CCCNC(=N)N)C(=O)CN(CCC(=O)O)C(=O)CN(CCc1c[nH]c2ccccc12)C(=O)CNCc1cccnc1` [Ligand 18-28-9] (H-[NGly(CH2(3-pyridyl))][Gly(N(CH2)2(3-indolyl))][N(CH2CH2COOH)Gly][Gly(N-(CH2)3-guanidino)][NGly(CH2(3-pyridyl))][N(CH2CH2COOH)Gly][Sar]-Cysteamide), for which, for the setting “Table 2”, the Qmax is reported as 41 and the Kd is 10 µM.
Consider `COCCN(CC(=O)N(CCCN)CC(=O)N(CCc1c[nH]c2ccccc12)CC(=O)NCCS)C(=O)CNCc1cccnc1` [Ligand 16-81-6] (H-[NGly(CH2(3-pyridyl))][Nme][Gly(N(CH2)3NH2)][Gly(N(CH2)2(3-indolyl))]-Cysteamide), for which, where the note is “Table 3”, the Qmax was determined as 45 and the Kd is 3.6 µM.
